The values below come from publication PMC6278366, “Synthesis and Evaluation of Anticancer Activities of Novel C-28 Guanidine-Functionalized Triterpene Acid Derivatives” (Molecules, 2018).

Structures are written as SMILES. Counter-ions that a name gives are not always drawn. Like-named read-outs stand apart in the source and are kept apart here.

The subject of series [1] is K562 (chronic myeloid leukemia) cells. Nature of the series: Cytotoxicity assay (7-AAD viability, flow cytometry), K562. Type of series: cell-based, human. To be noted: viable cells. The method, then:
(§1) Cells (Jurkat, K562, U937, HeLa, HEK293 and normal Fibroblasts) were purchased from Russian Cell Culture Collection (Institute of Cytology of the Russian Academy of Sciences, Saint Petersburg, Russia) and cultured according to standard mammalian tissue culture protocols and sterile technique. Human cell lines HEK293 and HeLa were obtained from the HPA Culture Collections (Salisbury, UK). All cell lines used in the study were tested and shown to be free of mycoplasma and viral contamination.
(§2) Cells were maintained in RPMI 1640 (Jurkat, K562, U937) (Gibco, Thermo Fisher Scientific, Waltham, MA, USA) supplemented with 4 mM glutamine, 10% FBS (Sigma, Burlington, MA, USA) and 100 units/mL penicillin-streptomycin (Sigma). All types of cells were grown in an atmosphere of 5% CO2 at 37 °C. The cells were subcultures at 2–3 days intervals. Adherent cells (HEK293, HeLa, fibroblasts) were suspended using trypsin/EDTA and counted after they have reached 80% confluency. Cells were then seeded in 24 well plates at 5 × 10^4 cells per well and incubated overnight. Jurkat, K562, U937 cells were subcultured at 2 day intervals with a seeding density of 1 × 10^5 cells per 24 well plates in RPMI with 10% FBS.
(§3) Viability (Live/dead) assessment was performed by staining cells with 7-AAD (7-Aminoactinomycin D) (Biolegend, San Diego, CA, USA). Cells were treated of test compounds with six different concentrations (1, 5, 10, 15, 30 and 60 μM). After treatment, cells were harvested, washed 1–2 times with phosphate-buffered saline (PBS) and centrifuged at 400× g for 5 min. Cell pellets were resuspended in 200 μL of flow cytometry staining buffer (PBS without Ca^2+ and Mg^2+, 2.5% FBS) and stained with 5 μL of 7-AAD staining solutionfor 15 min at room temperature in the dark. Samples were acquired on NovoCyteTM 2000 FlowCytometry System (ACEA, San Diego, CA, USA) equipped with 488 nm argon laser. Detection of 7-AAD emission was collected through a 675/30 nm filter in FL4 channel.

Series [2] has as its system U937 (histiocytic lymphoma) cells. Nature of the series: Cytotoxicity assay (7-AAD viability, flow cytometry), U937. The series is classed as cell-based, human. The method, then: as §1, §2, §3
The subject of series [3] is HEK293 (embryonic kidney) cells. Nature of the series: Cytotoxicity assay (7-AAD viability, flow cytometry), HEK293. The series is classed as cell-based, human. Particulars: at least three experiments in duplicate, viable cells. The method, then: as §1
(§4) HEK293, HeLa cell lines and fibroblasts were cultured as monolayers and maintained in Dulbecco’s modified Eagle’s medium (DMEM, Gibco BRL, Waltham, MA, USA) supplemented with 10% foetal bovine serum and 1% penicillin-streptomycin solution at 37 °C in a humidified incubator under a 5% CO2 atmosphere.
as §2, §3

The subject of series [4] is HeLa (cervical cancer) cells. Briefly: Cytotoxicity assay (7-AAD viability, flow cytometry), HeLa. The series is classed as cell-based, human. Particulars: mean ± SE, at least three experiments in duplicate, viable cells. How it is done: as §1, §4, §2, §3
A general note: Flow cytometry measures light scatter and fluorescence of single cells or particles in a stream.

Series [5] relates to Jurkat (T-lymphoblastic leukemia) cells. Nature of the series: cells. The series is classed as cell-based. To be noted: for IC50: viable cells; for SI (selectivity towards Jurkat cells): SI = IC50 fibroblasts/IC50 Jurkat cells. The method, then: as §1, §2, §3
For series [6], the system named is normal human fibroblasts. Nature of the series: Cytotoxicity assay (7-AAD viability, flow cytometry), normal fibroblasts. To be noted: mean ± SE, at least three experiments in duplicate. The series is classed as cell-based. How it is done: as §1, §4, §2
as §3, with “Cells were treated of test compounds with six different concentrations (1, 5, 10, 15, 30 and 60 μM).” left out

The mark [7] stands for this setting: Homo sapiens, K562, mean ± SE, at least three experiments in duplicate, read-out: IC50 K562.
Setting [8] is: Homo sapiens, U-937, mean ± SE, at least three experiments in duplicate; viable cells; read-out: IC50 U937.
Setting [9] is: Homo sapiens, HEK293, mean ± SE.
[10] abbreviates: Homo sapiens, Jurkat, mean ± SE, at least three experiments in duplicate, read-out: IC50 Jurkat.
The mark [11] stands for this setting: read-out: IC50 U937; mean ± SE, at least three experiments in duplicate; viable cells.

Regarding `CC(=O)O[C@H]1CC[C@@]2(C)C(CC[C@]3(C)C2CCC2C4C(C(C)C)CC[C@]4(C(=O)NCCNC(=N)N)CC[C@]23C)C1(C)C` (stereo partly drawn) [Compound 10b, 3β-N-(2-Ethylgyanidine)-3-O-acetyl-lupane-28-amide hydrochloride], the IC50 – broadly, the concentration needed to halve the response being measured – in series [1] (setting [7]) is 98 ± 0.35 µM; in series [2] (setting [8]), 82 ± 0.14 µM; in series [3] (setting [9]), 128 ± 0.35 µM; in series [4] (Homo sapiens, HeLa) it was 152 ± 0.49 µM; in series [5] (setting [10]), 67 ± 0.21 µM; in series [6] (Homo sapiens, Fibroblast), 354 ± 0.46 µM.

Take `CC(=O)O[C@H]1CC[C@@]2(C)C(CC[C@]3(C)C2CC=C2C4[C@@H](C)[C@H](C)CC[C@]4(C(=O)OCC(CO)(CO)NC(=N)N)CC[C@]23C)C1(C)C` (single isomer, unassigned) [Compound 18b, 3β-[2-Guanidine-3-hydroxy-2-(hydroxymethyl)propyl]-3-O-acetyl-urs-12-en-28-oate trifluoroacetate]: the IC50 amounted to 40 ± 0.29 µM in series [1] (mean ± SE, at least three experiments in duplicate, read-out: IC50 K562); 2.1 ± 0.41 µM in series [2] (mean ± SE, at least three experiments in duplicate; viable cells; read-out: IC50 U937); 13 ± 0.19 µM in series [3] (setting [9]); 11 ± 0.27 µM in series [4] (Homo sapiens, HeLa); 6.8 ± 0.32 µM in series [5] (setting [10]); 47 ± 0.15 µM in series [6] (Homo sapiens, Fibroblast).

Regarding `CC(=O)O[C@H]1CC[C@@]2(C)C(CC[C@]3(C)C2CCC2C4C(C(C)C)CC[C@]4(C(=O)NCCCCNC(=N)N)CC[C@]23C)C1(C)C` (stereo partly drawn) [Compound 11b, 3β-N-(4-Butylgyanidine)-3-O-acetyl-lupane-28-amide hydrochloride], the IC50 worked out at 55 ± 0.38 µM in series [1] (setting [7]); 63 ± 0.29 µM in series [2] (setting [8]); 98 ± 0.27 µM in series [3] (setting [9]); 106 ± 0.51 µM in series [4] (Homo sapiens, HeLa); 16 ± 0.18 µM in series [5] (setting [10]); 117 ± 0.38 µM in series [6] (Homo sapiens, Fibroblast). In addition, in series [5], the “increase in cytotoxic activity against Jurkat cells in comparison with dihydrobetulinic acid 2” value (shortened to “increase in cytotoxic activity”) is listed as “approximately 3 fold”. Further, the “SI (selectivity towards Jurkat cells)” value in series [5] amounted to 7.3.

Regarding `CC(=O)O[C@H]1CC[C@@]2(C)C(CC[C@]3(C)C2CCC2C4C(C(C)C)CC[C@]4(C(=O)NCCN(CCNC(=N)N)CCNC(=N)N)CC[C@]23C)C1(C)C` (single isomer, unassigned) [Compound 12a, 3β-N-[2-(N,N′-bis-Ethylgyanidine)-aminoethyl]-3-O-acetyl-lupane-28-amide trifluoroacetate], the IC50 in series [1] (Homo sapiens, K562, read-out: IC50 K562, mean ± SE, at least three experiments in duplicate) came to 89 ± 0.18 µM; in series [2] (setting [11]), 28 ± 0.25 µM; in series [3] (setting [9]) it was 112 ± 0.19 µM; in series [4] (Homo sapiens, HeLa) it was 101 ± 0.22 µM; in series [5] (Homo sapiens, Jurkat, read-out: IC50 Jurkat, mean ± SE, at least three experiments in duplicate), 22 ± 0.21 µM; in series [6] (Homo sapiens, Fibroblast), 149 ± 0.43 µM.

Take `CC(=O)O[C@H]1CC[C@@]2(C)C(CC[C@]3(C)C2CC=C2C4CC(C)(C)CC[C@]4(C(=O)OCC(CO)(CO)NC(=N)N)CC[C@]23C)C1(C)C` (stereo partly drawn) [Compound 20b, 3β-[2-Guanidine-3-hydroxy-2-(hydroxymethyl)propyl]-3-O-acetyl-olean-12-en-28-oate trifluoroacetate]: the 50% inhibitory concentration (IC50) turned out to be 20 ± 0.14 µM in series [1] (setting [7]); 6.1 ± 0.43 µM in series [2] (setting [8]); 12 ± 0.23 µM in series [3] (setting [9]); 13 ± 0.41 µM in series [4] (Homo sapiens, HeLa); 6.7 ± 0.15 µM in series [5] (setting [10]); 49 ± 0.25 µM in series [6] (Homo sapiens, Fibroblast).

As to `CC(C)C1CC[C@]2(C(=O)NCCCCNC(=N)N)CC[C@]3(C)C(CCC4[C@@]5(C)CCC(=O)C(C)(C)C5CC[C@]43C)C12` (stereo partly drawn) [Compound 9b, N-(4-Butylgyanidine)-3-oxolupane-28-amide dihydrochloride], the half-maximal inhibitory concentration (IC50) in series [1] (setting [7]) was determined as 57 ± 0.36 µM; in series [2] (setting [8]), 14 ± 0.16 µM; in series [3] (setting [9]) it was 92 ± 0.34 µM; in series [4] (Homo sapiens, HeLa), 81 ± 0.19 µM; in series [5] (setting [10]) it was 21 ± 0.24 µM; in series [6] (Homo sapiens, Fibroblast), 179 ± 0.43 µM. Also, the “increase in cytotoxic activity” value in series [5] is listed as “approximately 3 fold”. The “SI (selectivity towards Jurkat cells)” value in series [5] amounted to 8.5.

Regarding `CC(=O)O[C@H]1CC[C@@]2(C)C(CC[C@]3(C)C2CCC2C4C(C(C)C)CC[C@]4(C(=O)NCCCN4CCN(CCCNC(=N)N)CC4)CC[C@]23C)C1(C)C` (stereo partly drawn) [Compound 13a, 3β-N-{[3-(3-Propylguanidine)piperazinyl]propyl}-3-O-acetyl-lupane-28-amide trifluoroacetate], the IC50 in series [1] (setting [7]) amounted to 11 ± 0.33 µM; in series [2] (setting [8]), 18 ± 0.21 µM; in series [3] (setting [9]), 74 ± 0.15 µM; in series [4] (Homo sapiens, HeLa) it was 79 ± 0.29 µM; in series [5] (setting [10]) it was 24 ± 0.27 µM; in series [6] (Homo sapiens, Fibroblast), 104 ± 0.26 µM.

On to `C[C@H]1[C@H](C)CC[C@]2(C(=O)O)CC[C@]3(C)C(=CC[C@@H]4[C@@]5(C)CC[C@H](O)C(C)(C)[C@@H]5CC[C@]43C)[C@H]12` [UA, ursolic acid, reference compound], for which the IC50 in series [1] (setting [7]) was 68 ± 0.11 µM; in series [2] (setting [8]) it was 17 ± 0.12 µM; in series [3] (setting [9]), 96 ± 0.22 µM; in series [4] (Homo sapiens, HeLa), 88 ± 0.35 µM; in series [5] (setting [10]), 23 ± 0.34 µM; in series [6] (Homo sapiens, Fibroblast) it was 324 ± 0.16 µM.

Consider `CC(=O)O[C@H]1CC[C@@]2(C)C(CC[C@]3(C)C2CCC2C4C(C(C)C)CC[C@]4(C(=O)NCCN(CCNC(=N)N)CCNC(=N)N)CC[C@]23C)C1(C)C` (single isomer, unassigned) [Compound 12b, 3β-N-[2-(N,N′-bis-Ethylgyanidine)-aminoethyl]-3-O-acetyl-lupane-28-amide dihydrochloride], for which the IC50 in series [1] (read-out: IC50 K562, mean ± SE, at least three experiments in duplicate) came to 52 ± 0.26 µM; in series [2] (setting [11]) it was 13 ± 0.06 µM; in series [3] (mean ± SE), 68 ± 0.29 µM; in series [4], 72 ± 0.34 µM; in series [5] (read-out: IC50 Jurkat, mean ± SE, at least three experiments in duplicate), 14 ± 0.37 µM; in series [6], 106 ± 0.23 µM.

For `CC1(C)CC[C@]2(C(=O)O)CC[C@]3(C)C(=CC[C@@H]4[C@@]5(C)CC[C@H](O)C(C)(C)[C@@H]5CC[C@]43C)[C@@H]2C1` [OA, oleanolic acid, reference compound], the IC50 in series [1] (setting [7]) stood at 235 ± 0.24 µM; in series [2] (setting [8]) it was 186 ± 0.18 µM; in series [3] (setting [9]) it was 247 ± 0.27 µM; in series [4] (Homo sapiens, HeLa) it was 258 ± 0.31 µM; in series [5] (setting [10]), 271 ± 0.19 µM; in series [6] (Homo sapiens, Fibroblast), 694 ± 0.17 µM.

Regarding `CC(C)C1CC[C@]2(C(=O)NCCCCNC(=N)N)CC[C@]3(C)C(CCC4[C@@]5(C)CC[C@H](O)C(C)(C)C5CC[C@]43C)C12` (stereo partly drawn) [Compound 14, 3β-N-(4-Butylgyanidine)-3-hydroxy-lupane-28-amide], the IC50 in series [1] (setting [7]) turned out to be 36 ± 0.42 µM; in series [2] (setting [8]), 20 ± 0.12 µM; in series [3] (setting [9]), 59 ± 0.21 µM; in series [4] (Homo sapiens, HeLa), 62 ± 0.24 µM; in series [5] (setting [10]) it was 17 ± 0.34 µM; in series [6] (Homo sapiens, Fibroblast), 96 ± 0.17 µM. Moreover, the “increase in cytotoxic activity” value in series [5] was “approximately 3 fold”. The “SI (selectivity towards Jurkat cells)” value in series [5] came out at 5.6.
